For two compounds, IC50 results are on record in US9580390B2, “Indazole compounds as kinase inhibitors and method of treating cancer with same” (University Health Network, priority 2011, dated 2017).

The target in this assay is T1, human PLK4 (Homo sapiens, UniProt O00444).
T1 construct: amino terminal GST fusion of residues 1-391 of human PLK4; made in house; host or cells: E. coli
T1 sequence (O00444 1-391): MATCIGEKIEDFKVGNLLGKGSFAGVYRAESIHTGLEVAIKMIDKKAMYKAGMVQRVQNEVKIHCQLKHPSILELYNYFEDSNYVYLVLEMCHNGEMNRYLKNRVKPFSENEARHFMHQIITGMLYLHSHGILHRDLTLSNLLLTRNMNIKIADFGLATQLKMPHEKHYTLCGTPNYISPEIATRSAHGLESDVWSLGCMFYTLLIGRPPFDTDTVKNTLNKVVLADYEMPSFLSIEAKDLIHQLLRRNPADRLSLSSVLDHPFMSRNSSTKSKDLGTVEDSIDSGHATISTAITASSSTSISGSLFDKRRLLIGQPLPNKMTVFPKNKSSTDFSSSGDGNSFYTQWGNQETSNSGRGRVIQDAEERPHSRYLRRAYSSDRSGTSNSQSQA
Kind of assay: PLK4 inhibition assay (indirect ELISA). Format: biochemical. As to conditions: 15 μM ATP. An outline of the steps: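 Dephosphorylated GST-PLK4 (residues 1-391, E. coli; 4 nM) was preincubated 15 min with compound, then reacted 30 min with 15 μM ATP in HEPES pH 7.4, MgCl2, Brij 35 on MBP-coated plates. Phospho-MBP was detected by antibody/HRP ELISA at 450 nm; IC50 from 10-point titration by 4-parameter logistic fit, or single 10 μM % inhibition.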

As for `CC(C)[C@H](NC(=O)c1ccc2[nH]nc(-c3ccc(OC4CC5CCC(C4)N5C4COC4)cc3)c2c1)c1ccccc1Cl` (some centres unmarked) [Example A335], the IC50 (usually the concentration that inhibits the measured activity by half) is less than 50 nM.

As for `CC(C)C[C@@H](NC(=O)c1ccc2[nH]nc(-c3ccc(N4CCN(C5COC5)CC4)cc3)c2c1)c1ccccc1Cl` [Example A300, (R)-N-(1-(2-chlorophenyl)-3-methylbutyl)-3-(4-(4-(oxetan-3-yl)piperazin-1-yl)phenyl)-1H-indazole-5-carboxamide], the IC50 is less than 50 nM.
